According to patent publication EP0286491B1, “Antimalarial aminoquinoline derivatives, method for their preparation and pharmaceutical composition containing them” (LA REGION WALLONNE, priority 1987, dated 1988):
Entries after “also recorded” stand apart in the source; their conditions may differ.

Assays:
[1] = system: P. berghei berghei (ANKA); assay: Causal prophylactic activity in the rodent malaria model (sporozoite-infected mice, single i.v. treatment 3 h after inoculation); assay type: in vivo, souris Swiss OF1; conditions: for index Pq (CPD₅₀ de la Pq/CPD₅₀ du composé): ratio of CPD₅₀ of Pq to CPD₅₀ of the derivative; for CPD₅₀ (dose prophylactique causale guérissant 50 % des animaux infectés) / ED50: dose as mg Pq diphosphate/kg; for ED50: read-out: CPD₅₀ (dose prophylactique causale guérissant 50 % des animaux infectés); for index thérapeutique (LD₅₀/CPD₅₀): ratio LD₅₀/CPD₅₀; for activité thérapeutique compared with Pq: qualitative comparison with primaquine
Excerpt: Le modèle de la malaria du rongeur, Plasmodium berghei-Anopheles stephensi-souris, mis au point par MOST, H., HERMAN, R. & SCHOENFELD, C. (1967) Am. J. Trop. Med. Hyg. 16, 572-575, permet de déterminer l'activité prophylactique causale (schizonticide tissulaire) de nouveaux composés thérapeutiques. La procédure utilisée est dérivée de celle de MOST, H. & MONTUORI, W.A. (1975) Am. J. Trop. Med. Hyg. 24, 179-182. Il s'agit du système P. berghei berghei (ANKA)- Anopheles stephensi-souris Swiss OF1. La souche ANKA de P. b. berghei est entretenue cycliquement sur Anopheles stephensi. La souche de souris Swiss OF1 est particulièrement sensible à P. b. berghei qui produit une infection toujours mortelle.
Les moustiques femelles (80 à 100 individus par préparation) sont débarassés de leurs pattes, ailes et abdomen, puis homogénéisés à 4°C à l'aide d'un potter en verre, dans du milieu M 199 (GIBCO) contenant 10 % de sérum foetal de veau. La suspension de sporozoïtes est ensuite purifiée des débris du moustique par deux centrifugations successives ( 2 min. à 50 g et 5 min. à 200 g) et le surnageant recueilli est conservé à 4°C. Après comptage dans une chambre de Petroff-Hausser, le nombre de parasites est ajusté par dilution avec le même milieu froid, à la densité de 2 x 10⁵ sporozoïtes/ml. L'ensemble de la procédure est toujours effectuée dans un maximum de 35 minutes et permet de préserver la viabilité et l'infectivité des sporozoïtes.
Un volume de 0,5 ml de la suspension contenant 10⁵ sporozoïtes est injectée i.v. aux souris Swiss OF1 femelles de 18 à 22 g utilisées pour les tests thérapeutiques.
Des groupes de 20 à 25 souris infectées comme décrit ci-dessus sont traités en une seule injection intraveineuse de primaquine diphosphate (Pq) ou des dérivés monoacyls et aminoacides de la primaquine sous formes dichlorhydrates (X-Pq) trois heures après l'inoculation des sporozoïtes. Le volume injecté est ajusté en fonction du poids de la souris, à raison de 0,5 ml pour un poids de 25 g. Les composés sont dilués dans du tampon phosphate salin (PBS) pH 7.0 et le pH est ajusté à 7.0. Les souris infectées mais non traitées (5 par groupe) reçoivent le tampon seul et servent à contrôler l'infectivité des sporozoïtes.
Les souris expérimentales sont gardées durant une période de 50 jours. Le développement de la parasitémie est suivi en examinant quotidiennement des frottis de sang, colorés 60 min. au Giemsa à 5 % dans du tampon Sörensen à pH 7,2, à partir du 5ème jour et ce jusqu'au 15ème jour. Le nombre d'animaux infectés peut ainsi être déterminé. Ces résultats permettent d'établir la survie à long terme (LTS, le nombre de souris survivantes non parasitées sur le nombre de souris infectées et traitées).
L'activité prophylactique causale (CPD₅₀) est obtenue par l'analyse des logits de la réponse (exprimée en % de LTS) en fonction de la dose (mg Pq/kg).
Les animaux infectés à l'aide de sporozoïtes de P. berghei sont traités trois heures après avec une seule injection des composés par voie intraveineuse. Ce test permet de définir l'activité prophylactique causale des composés ou la dose permettant de guérir 50 % des animaux infectés (CPD₅₀). La dose est toujours exprimée en mg de Pq diphosphate par kg.

[2] = Acute toxicity after a single i.v. injection in non-infected mice; assay type: in vivo; conditions: for LD50 / MTD: mouse, in vivo, iv; for LD50: mice, read-out: dose léthale 50 % (LD₅₀); for MTD: highest dose with weight loss <= 5 % over five days, read-out: dose maximale tolérée (MTD); for toxicité aiguë compared with Pq: qualitative comparison with primaquine
Excerpt: La toxicité aiguë en fonction de la dose unique administrée est déterminée sur des souris de 18 à 22 g. Une série de dilutions de chaque composé est injectée par voie intraveineuse à des groupes de 10 souris.
^a : les dérivés sont administrés par vote i.v. trois heures après l'inoculation des sporozoïtes. Les concentrations sont toujours exprimées en mg Pq diphosphate/kg. ^b : la dose maximale tolérée est définie code la dose la plus élevée induisant une perte de poids inférieure ou égale & 5 % du poids initial pendant une période de cinq jours suivant l'injection i.v. ^c : dose léthale tuant 50 % des souris en une seule injection i.v. ^d : dose prophylactique causale permettant de guérir 50 % des souris injectées. ^e : index thérapeutique défini par le rapport LD₅₀/CPD₅₀.

[3] = single i.v. injection 3 h after sporozoite inoculation
[4] = Plasmodium berghei, iv, single i.v. injection 3 h after sporozoite inoculation

L-glutamine
index Pq (CPD₅₀ de la Pq/CPD₅₀ du composé) [1]: 1,9
CPD₅₀ (dose prophylactique causale guérissant 50 % des animaux infectés) [1, 3]: 10 mg Pq/kg

COc1cc(NC(C)CCCN)c2ncccc2c1 (stereo not shown) [Pq, 6-méthoxy-8-(4-amino-1-méthylbutylamino)-quinoléine, reference compound]
toxicité dès ([2]; dose from which toxicity is seen, i.v.): ≥ 25 mg/kg
LD50 ([2]; single i.v. injection): 31 mg/kg
MTD ([2]; single i.v. injection): 25.7 mg/kg
ED50 [1, 4]: 18.7 mg/kg
minimal effective dose ([1]; Plasmodium berghei, iv, single i.v. injection 3 h after sporozoite inoculation, read-out: dose minimale effective): 10.4 mg/kg
activité thérapeutique ([1]; at 25 mg/kg i.v.): 75%
index thérapeutique (LD₅₀/CPD₅₀) [1]: 1,7

COc1cc(NC(C)CCCNC(=O)CCCC(=O)O)c2ncccc2c1 (stereo not shown) [glutarryl-Pq]
activité thérapeutique compared with Pq [1]: nettement moins actifs que la Pq

COc1cc(NC(C)CCCNC(=O)C(Cc2ccccc2)NC(=O)CCC(=O)O)c2ncccc2c1 [succinyl-L-phenylalanyl-Pq]
activité thérapeutique compared with Pq [1]: nettement moins actifs que la Pq

COc1cc(NC(C)CCCNC(=O)[C@@H](N)CCC(=O)O)c2ncccc2c1 (stereo partly drawn) [L-glutamyl-Pq, N-1-L-glutamyl, N-4-(méthoxy-6-quinolinyl-8) pentadiamine-1,4]
LD₅₀ relative to the LD₅₀ of Pq ([2]; fold higher than Pq): 4 x
MTD relative to the MTD of Pq ([2]; fold higher than Pq): 5 x
LD50 ([2]; single i.v. injection): 136 mg/kg
MTD ([2]; single i.v. injection): 124 mg/kg
toxicité aiguë compared with Pq [2]: le moins toxique; also recorded: meilleure réduction de toxicité
ED50 [1, 4]: 8.5 mg/kg
index thérapeutique (LD₅₀/CPD₅₀) [1]: 16,1
index Pq (CPD₅₀ de la Pq/CPD₅₀ du composé) [1]: 2,2

COc1cc(NC(C)CCCNC(=O)[C@@H](N)Cc2ccccc2)c2ncccc2c1 (stereo partly drawn) [L-phenylalanyl-Pq, N-1-L-phénylalanyl , N-4(methoxy-6-quinolinyl-8) pentanediamine-1,4]
toxicité aiguë compared with Pq [2]: voisine de celle de la Pq
index Pq (CPD₅₀ de la Pq/CPD₅₀ du composé) [1]: 3,1
dose minimale effective [1, 3]: 1,8 mg Pq/kg
dose totalement curative (100 %) [1, 3]: 21,3 mg Pq/kg
CPD₅₀ (dose prophylactique causale guérissant 50 % des animaux infectés) [1, 3]: 6,1 mg Pq/kg

COc1cc(NC(C)CCCNC(=O)[C@H](CC(C)C)NC(=O)[C@H](C)N)c2ncccc2c1 (stereo partly drawn) [L-leucyl-L-alanyl-Pq, N-1-L-Alanyl-L-Leucyl, N-4-(Méthoxy-6-quinolinyl-8) pentanediamine-1,4]
toxicité aiguë compared with Pq [2]: meilleure réduction de toxicité

COc1cc(NC(C)CCCNC(=O)[C@@H](N)CC(C)C)c2ncccc2c1 (stereo partly drawn) [L-leucyl-Pq, N-1-L-leucyl, N-4-(méthoxy-6-quinolinyl-8)pentanediamine-1,4]
index Pq (CPD₅₀ de la Pq/CPD₅₀ du composé) [1]: 1,2
dose minimale effective [1, 3]: 7,6 mg Pq/kg
dose totalement curative (100 %) [1, 3]: 30 mg Pq/kg
CPD₅₀ ([1]; single i.v. injection 3 h after sporozoite inoculation, unit printed without mg): 16,2 Pq/kg

COc1cc(NC(C)CCCNC(=O)C(C)NC(=O)CCC(=O)O)c2ncccc2c1 [succinyl-L-alanyl-Pq]
activité thérapeutique compared with Pq [1]: nettement moins actifs que la Pq

COc1cc(NC(C)CCCNC(=O)[C@H](C)N)c2ncccc2c1 (stereo partly drawn) [L-alanyl-Pq, N-1-L-alanyl, N-4-(méthoxy-6-quinolinyl-8) pentanediamine-1,4]
toxicité aiguë compared with Pq [2]: meilleure réduction de toxicité; also recorded: moins toxique que la primaquine
activité thérapeutique compared with Pq [1]: presque quatre fois supérieure à celle de la primaquine base
index Pq (CPD₅₀ de la Pq/CPD₅₀ du composé) [1]: 3,0
dose minimale effective [1, 3]: 4 mg Pq/kg
dose totalement curative (100 %) [1, 3]: 9,9 mg Pq/kg
CPD₅₀ (dose prophylactique causale guérissant 50 % des animaux infectés) [1, 3]: 6,3 mg Pq/kg

COc1cc(NC(C)CCCNC(=O)[C@@H](C)N)c2ncccc2c1 (stereo partly drawn) [D-alanine, N-1-D-alanyl, N-4-(méthoxy-6-quinolinyl-8)pentanediamine-1,4]
toxicité aiguë compared with Pq [2]: très faible toxicité

COc1cc(NC(C)CCCNC(=O)[C@@H](N)CCCCN)c2ncccc2c1 (stereo partly drawn) [L-lysyl-Pq]
plus toxique que la primaquine ([2]; acute toxicity, fold versus primaquine): 3 x
dose minimale toxique ([2]; single i.v. injection): 8,2 mg Pq/kg
index Pq (CPD₅₀ de la Pq/CPD₅₀ du composé) [1]: 4,8
dose minimale effective [1, 3]: 1,7 mg Pq/kg
dose totalement curative (100 %) [1, 3]: 8,2 mg Pq/kg
CPD₅₀ (dose prophylactique causale guérissant 50 % des animaux infectés) [1, 3]: 3,9 mg Pq/kg
